Assay in all cases: inhibition of tumour cell growth, NCI panel, 48 h
Assay [1] deals with DMS-114.
Assay [2] deals with SNB-78.
Assay [3] relates to RXF 631.
In assay [4] the test system is DMS-273.
For assay [5], the system named is HOP-18.
In assay [6] the test system is LXFL 529.
Assay [7] concerns XF498.
Assay [8] deals with M19-MEL.
For assay [9], the system named is Hs-578T.

21 compounds from ChEMBL document CHEMBL1201862, “PubChem BioAssay data set” (2004) can be followed below.

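Where inhibition never reached the appropriate level, the endpoint shown equals the highest concentration tested. Otherwise, values were interpolated linearly from a five-concentration, 48-hour dose response in 96-well plates. Abbreviation: GI50, concentration required for 50% inhibition of growth.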 Activity calls are given as the source filed them. No stated cut-off is given here; in the data, active = GI50 up to about 1.1 µM and inactive = higher.

Regarding `N#CC1C(=O)NC(=O)C1=O` (stereo unspecified), the GI50 in [1], in [2], in assay [3], in assay [4], in assay [5] and in assay [6] was > 100 µM (inactive) throughout. Further, the GI50 in assay [7] and in assay [8] was > 100 µM (inactive) in each case.
Take `O/N=C/c1ccc(O)c(O)c1`: the GI50 was 14.7 µM (inactive) in assay [1]; > 100 µM (inactive) in [2]; 62.5 µM (inactive) in assay [4]; 84.9 µM (inactive) in [6]; > 100 µM (inactive) in assay [7]; > 100 µM (inactive) in assay [8].
Regarding `Cc1cc(NS(=O)(=O)c2ccc(NC(=O)c3cccc4c(=O)c5ccccc5[nH]c34)cc2)no1`, the GI50 in [1] was 46 µM (inactive); in [2] it was 38.7 µM (inactive); in assay [5], 10.2 µM (inactive); in assay [6], 15.7 µM (inactive); in assay [7] it was 13.6 µM (inactive); in assay [8] it was 39.4 µM (inactive).
Turning to `CCCCN/C(=N/C#N)NCc1ccccc1`, the GI50 in [2], in assay [4], in [6], in assay [7] and in assay [8] was > 100 µM (inactive) each time.
`O=C1CCC2CCOc3ccc(O)c1c32` (stereo unspecified): the GI50 in [1], in assay [2], in assay [3], in assay [4] and in assay [8] was > 100 µM (inactive) in each case.
As for `CCCN(CCC)C(=O)c1nc(N)nc(-c2ccc(OC)cc2)c1-c1ccc(OC)cc1`, the GI50 is 84.9 µM (inactive) in assay [1]; 80.5 µM (inactive) in assay [2]; > 100 µM (inactive) in assay [3]; > 100 µM (inactive) in assay [4]; 46.7 µM (inactive) in assay [5]; 82 µM (inactive) in [6]. In addition, the GI50 in assay [7] is > 100 µM (inactive).
As to `O=C1[C@H]2ON(c3ccccc3)C(c3ccco3)[C@H]2C(=O)N1c1ccc(Cc2ccc(N3C(=O)[C@@H]4ON(c5ccccc5)C(c5ccco5)[C@@H]4C3=O)cc2)cc1` (stereo partly specified), the GI50 in assay [1] is > 100 µM (inactive); in [2], > 100 µM (inactive); in assay [4], 78.3 µM (inactive); in assay [5], > 100 µM (inactive); in [6] it was > 100 µM (inactive); in [7], 42.7 µM (inactive). In addition, the GI50 in assay [8] was > 100 µM (inactive).
As to `C(/COc1cccnc1)=N\NC1=NCCN1`, the GI50 in assay [1], in assay [2], in assay [4], in assay [5], in assay [6] and in assay [7] was > 100 µM (inactive) throughout. The GI50 in [8] was > 100 µM (inactive).
Turning to `Cc1cc(N(CCC#N)CCC#N)ccc1/N=N/c1ccc(C(=O)O)cc1`, the GI50 in [1] is > 100 µM (inactive); in assay [2] it was > 100 µM (inactive); in assay [4] it was > 100 µM (inactive); in assay [5] it was 58.9 µM (inactive); in assay [6], > 100 µM (inactive); in [7], > 100 µM (inactive). For the same compound, in [8], the GI50 was > 100 µM (inactive).
For `CC(=O)OCCc1cccnc1/C=N/O`, the GI50 in assay [1], in assay [2], in assay [4], in assay [5], in assay [6] and in [7] was > 100 µM (inactive) throughout. Besides, the GI50 in [8] is > 100 µM (inactive).
As for `COc1cc(-c2cc(-c3cc([N+](=O)[O-])c(/C=N/NC(=O)c4ccncc4)o3)ccc2OC)ccc1C`, the GI50 in assay [3], in [6], in assay [7] and in assay [8] was > 100 µM (inactive) in each case.
Take `CCOC(=O)c1sc2c(C(=O)OCC)n3ccccc3c2c1N`: the GI50 in assay [1] is 40.6 µM (inactive); in [2] it was 50.9 µM (inactive); in assay [4], 53.6 µM (inactive); in [5], > 100 µM (inactive); in assay [7], 25.3 µM (inactive); in assay [8] it was > 100 µM (inactive).
As for `CC(=O)Nc1ccc(S(=O)(=O)N/N=C/c2cc(I)cc([N+](=O)[O-])c2O)cc1`, the GI50 is 50.8 µM (inactive) in assay [1]; 37 µM (inactive) in [2]; > 100 µM (inactive) in [3]; 62.4 µM (inactive) in [4]; 27.7 µM (inactive) in assay [5]; 24.1 µM (inactive) in assay [7]. In addition, the GI50 in assay [8] was 66.4 µM (inactive).
Regarding `c1ccc(P(=C2c3ccccc3-c3ccccc32)(c2ccccc2)c2ccccc2)cc1`, the GI50 in [1] is 2.79 µM (inactive); in assay [3], 5.64 µM (inactive); in [4] it was 5.04 µM (inactive); in assay [5], 4.47 µM (inactive); in [6], 3.85 µM (inactive); in assay [8] it was 4.94 µM (inactive).
Turning to `CCOC(=O)C(=O)Nc1nc2c(s1)C(=O)c1ccccc1C2=O`, the GI50 was 3.6 µM (inactive) in [1]; 11.6 µM (inactive) in assay [2]; 12.3 µM (inactive) in assay [3]; 19.6 µM (inactive) in assay [4]; 13.4 µM (inactive) in assay [6]; 13.9 µM (inactive) in assay [7]. Further, the GI50 in assay [8] is 2.49 µM (inactive).
Regarding `O=C1/C(=N\O)C2CCC1C2` (stereo unspecified), the GI50 in [1], in assay [2], in assay [4], in assay [5], in assay [6] and in [8] was > 100 µM (inactive) throughout.
For the compound `COc1cc(O)c(C(=O)/C=C/c2ccc(OC)c(OCc3ccccc3)c2)c(OC)c1`, the GI50 is 2.57 µM (inactive) in assay [2]; 0.175 µM (active) in assay [4]; > 100 µM (inactive) in assay [5]; 5.45 µM (inactive) in assay [6]; > 100 µM (inactive) in [7]; > 100 µM (inactive) in [8].
As for `CC1=CC(=O)C(=O)C2=C1OC1(C2)C(C)CCC2C3(C)CCC(O)C(C)(C)C3CCC21C` (stereo unspecified), the GI50 in [1] is 14.9 µM (inactive); in assay [2] it was 22.4 µM (inactive); in assay [4], 24.9 µM (inactive); in assay [6] it was 15.5 µM (inactive); in assay [7], 18.2 µM (inactive); in [8] it was 18.4 µM (inactive).
In the case of `CCN1/C(=C/C(C)=C/c2sc3ccccc3[n+]2CC)Sc2ccccc21`, the GI50 in [1] was 0.082 µM (active); in assay [2], 0.34 µM (active); in [4], 0.064 µM (active); in assay [6], 0.0331 µM (active); in [7], 0.0762 µM (active); in assay [8], 0.173 µM (active).
With `O=c1cc(-c2ccc(O)cc2)oc2cc(O)cc(O)c12` [APIGENIN], the GI50 in assay [1] is 32.3 µM (inactive); in assay [2], 17.5 µM (inactive); in assay [4] it was 18.6 µM (inactive); in assay [6] it was 18.2 µM (inactive); in [7] it was 24.2 µM (inactive); in assay [8], 33.5 µM (inactive).
In the case of `COc1cc(-c2oc3c(OC)c(OC)cc(O)c3c(=O)c2OC)ccc1O` [TERNATIN], the GI50 was > 100 µM (inactive) in assay [1]; 6.49 µM (inactive) in assay [2]; 3.93 µM (inactive) in [9]; > 100 µM (inactive) in [3]; 3.98 µM (inactive) in assay [6]; 2.2 µM (inactive) in assay [7].
